Tested on: serum uric acid (sUA) levels in hyperuricemic patients
Assay: PRESTO study: change in serum uric acid in hyperuricemic patients (baseline >=8 mg/dL), Tranilast twice daily for 1 or 3 months
Format: in vivo, human
Procedure: The PRESTO (Prevention of Restenosis with Tranilast and its Outcomes) study was a multicenter study of ˜11,500 patients undergoing percutaneous transluminal coronary revascularization (PTCR) with or without stenting for single or multiple vessels over a 9-month period. The study compared the composite clinical event rate of death, myocardial infarction, or need for ischemia-driven target vessel revascularization in patients treated with Tranilast (300 and 450 mg twice daily) for 1 or 3 months versus placebo. Description of the study protocol and patient population can be found in Holmes et al., The PRESTO (Prevention of Restenosis with Tranilast and its Outcomes) protocol: A double-blind, placebo-controlled trial, Am Heart J 2000; 139:23-31; and Holmes et al., Results of Prevention of REStenosis with Tranilast and its Outcomes (PRESTO) Trial, Circulation. 2002; 106:1243, both of which are incorporated by reference herein in their entirety.
Gout was a contraindication for patient enrollment in the PRESTO trial. Nevertheless, 1100 patients enrolled in the trial were identified with baseline hyperuricemia defined as initial serum uric acid (sUA) levels greater than or equal to 7 mg/dL. Of these, approximately 300 participants had baseline serum uric acid levels greater than or equal to 8 mg/dL. […] As indicated in FIG. 1 and Table 4, some patients were treated with placebo, some patients were treated with Tranilast for 4 weeks followed by placebo, and some patients were treated with Tranilast for 12 weeks.

COc1ccc(/C=C/C(=O)Nc2ccccc2C(=O)O)cc1OC [Tranilast, 2-[[3-(3,4-dimethoxyphenyl)-1-oxo-2-propenyl]amino]benzoic acid]
Change from Baseline in Uric Acid, Max (3M TRAN 300 mg, Follow-Up): 3.04 mg/dL | Change from Baseline in Uric Acid, Mean (SD) (3M TRAN 300 mg, Follow-Up): −0.00 (1.519) mg/dL | Change from Baseline in Uric Acid, Median (3M TRAN 300 mg, Follow-Up): -0.13 mg/dL | Change from Baseline in Uric Acid, Min (3M TRAN 300 mg, Follow-Up): -3.00 mg/dL | Change from Baseline in Uric Acid, Max (3M TRAN 300 mg, Post-PTCR): 1.90 mg/dL | Change from Baseline in Uric Acid, Mean (SD) (3M TRAN 300 mg, Post-PTCR): −1.81 (1.966) mg/dL | Change from Baseline in Uric Acid, Median (3M TRAN 300 mg, Post-PTCR): -1.58 mg/dL | Change from Baseline in Uric Acid, Min (3M TRAN 300 mg, Post-PTCR): -14.79 mg/dL | Change from Baseline in Uric Acid, Max (3M TRAN 300 mg, Week 1): 3.14 mg/dL | Change from Baseline in Uric Acid, Mean (SD) (3M TRAN 300 mg, Week 1): −2.96 (2.394) mg/dL | Change from Baseline in Uric Acid, Median (3M TRAN 300 mg, Week 1): -2.85 mg/dL | Change from Baseline in Uric Acid, Min (3M TRAN 300 mg, Week 1): -15.66 mg/dL | Change from Baseline in Uric Acid, Max (3M TRAN 300 mg, Week 2): 2.30 mg/dL | Change from Baseline in Uric Acid, Mean (SD) (3M TRAN 300 mg, Week 2): −2.98 (2.224) mg/dL | Change from Baseline in Uric Acid, Median (3M TRAN 300 mg, Week 2): -2.94 mg/dL | Change from Baseline in Uric Acid, Min (3M TRAN 300 mg, Week 2): -15.09 mg/dL | Change from Baseline in Uric Acid, Max (3M TRAN 300 mg, Week 3): 1.92 mg/dL | Change from Baseline in Uric Acid, Mean (SD) (3M TRAN 300 mg, Week 3): −2.92 (1.946) mg/dL | Change from Baseline in Uric Acid, Median (3M TRAN 300 mg, Week 3): -3.00 mg/dL | Change from Baseline in Uric Acid, Min (3M TRAN 300 mg, Week 3): -6.13 mg/dL | Change from Baseline in Uric Acid, Max (3M TRAN 300 mg, Week 4): 1.98 mg/dL | Change from Baseline in Uric Acid, Mean (SD) (3M TRAN 300 mg, Week 4): −2.83 (2.212) mg/dL | Change from Baseline in Uric Acid, Median (3M TRAN 300 mg, Week 4): -2.80 mg/dL | Change from Baseline in Uric Acid, Min (3M TRAN 300 mg, Week 4): -14.30 mg/dL | Change from Baseline in Uric Acid, Max (3M TRAN 300 mg, Week 6): 8.50 mg/dL | Change from Baseline in Uric Acid, Mean (SD) (3M TRAN 300 mg, Week 6): −2.75 (2.755) mg/dL | Change from Baseline in Uric Acid, Median (3M TRAN 300 mg, Week 6): -3.00 mg/dL | Change from Baseline in Uric Acid, Min (3M TRAN 300 mg, Week 6): -15.65 mg/dL | Change from Baseline in Uric Acid, Max (3M TRAN 300 mg, Week 8): 1.70 mg/dL | Change from Baseline in Uric Acid, Mean (SD) (3M TRAN 300 mg, Week 8): −2.76 (2.451) mg/dL | Change from Baseline in Uric Acid, Median (3M TRAN 300 mg, Week 8): -2.71 mg/dL | Change from Baseline in Uric Acid, Min (3M TRAN 300 mg, Week 8): -15.77 mg/dL | Change from Baseline in Uric Acid, Max (3M TRAN 300 mg, Week 10): 2.30 mg/dL | Change from Baseline in Uric Acid, Mean (SD) (3M TRAN 300 mg, Week 10): −2.97 (2.490) mg/dL | Change from Baseline in Uric Acid, Median (3M TRAN 300 mg, Week 10): -2.98 mg/dL | Change from Baseline in Uric Acid, Min (3M TRAN 300 mg, Week 10): -15.65 mg/dL | Change from Baseline in Uric Acid, Max (3M TRAN 300 mg, Week 12): 3.60 mg/dL | Change from Baseline in Uric Acid, Mean (SD) (3M TRAN 300 mg, Week 12): −2.74 (2.634) mg/dL | Change from Baseline in Uric Acid, Median (3M TRAN 300 mg, Week 12): -2.69 mg/dL | Change from Baseline in Uric Acid, Min (3M TRAN 300 mg, Week 12): -16.02 mg/dL | Change from Baseline in Uric Acid, Max (3M TRAN 450 mg, Follow-Up): 1.80 mg/dL | Change from Baseline in Uric Acid, Mean (SD) (3M TRAN 450 mg, Follow-Up): −0.67 (1.277) mg/dL | Change from Baseline in Uric Acid, Median (3M TRAN 450 mg, Follow-Up): -0.70 mg/dL | Change from Baseline in Uric Acid, Min (3M TRAN 450 mg, Follow-Up): -2.90 mg/dL | Change from Baseline in Uric Acid, Max (3M TRAN 450 mg, Post-PTCR): 1.70 mg/dL | Change from Baseline in Uric Acid, Mean (SD) (3M TRAN 450 mg, Post-PTCR): −2.16 (1.577) mg/dL | Change from Baseline in Uric Acid, Median (3M TRAN 450 mg, Post-PTCR): -1.90 mg/dL | Change from Baseline in Uric Acid, Min (3M TRAN 450 mg, Post-PTCR): -7.34 mg/dL | Change from Baseline in Uric Acid, Max (3M TRAN 450 mg, Week 1): 0.90 mg/dL | Change from Baseline in Uric Acid, Mean (SD) (3M TRAN 450 mg, Week 1): −3.84 (1.839) mg/dL | Change from Baseline in Uric Acid, Median (3M TRAN 450 mg, Week 1): -3.99 mg/dL | Change from Baseline in Uric Acid, Min (3M TRAN 450 mg, Week 1): -8.79 mg/dL | Change from Baseline in Uric Acid, Max (3M TRAN 450 mg, Week 2): 0.92 mg/dL | Change from Baseline in Uric Acid, Mean (SD) (3M TRAN 450 mg, Week 2): −4.05 (1.861) mg/dL | Change from Baseline in Uric Acid, Median (3M TRAN 450 mg, Week 2): -4.56 mg/dL | Change from Baseline in Uric Acid, Min (3M TRAN 450 mg, Week 2): -8.72 mg/dL | Change from Baseline in Uric Acid, Max (3M TRAN 450 mg, Week 3): 1.50 mg/dL | Change from Baseline in Uric Acid, Mean (SD) (3M TRAN 450 mg, Week 3): −2.84 (2.227) mg/dL | Change from Baseline in Uric Acid, Median (3M TRAN 450 mg, Week 3): -3.79 mg/dL | Change from Baseline in Uric Acid, Min (3M TRAN 450 mg, Week 3): -5.79 mg/dL | Change from Baseline in Uric Acid, Max (3M TRAN 450 mg, Week 4): 1.43 mg/dL | Change from Baseline in Uric Acid, Mean (SD) (3M TRAN 450 mg, Week 4): −3.70 (2.190) mg/dL | Change from Baseline in Uric Acid, Median (3M TRAN 450 mg, Week 4): -3.90 mg/dL | Change from Baseline in Uric Acid, Min (3M TRAN 450 mg, Week 4): -8.40 mg/dL | Change from Baseline in Uric Acid, Max (3M TRAN 450 mg, Week 6): 2.70 mg/dL | Change from Baseline in Uric Acid, Mean (SD) (3M TRAN 450 mg, Week 6): −3.89 (2.265) mg/dL | Change from Baseline in Uric Acid, Median (3M TRAN 450 mg, Week 6): -4.39 mg/dL | Change from Baseline in Uric Acid, Min (3M TRAN 450 mg, Week 6): -8.69 mg/dL | Change from Baseline in Uric Acid, Max (3M TRAN 450 mg, Week 8): 1.40 mg/dL | Change from Baseline in Uric Acid, Mean (SD) (3M TRAN 450 mg, Week 8): −3.65 (2.104) mg/dL | Change from Baseline in Uric Acid, Median (3M TRAN 450 mg, Week 8): -3.83 mg/dL | Change from Baseline in Uric Acid, Min (3M TRAN 450 mg, Week 8): -7.16 mg/dL | Change from Baseline in Uric Acid, Max (3M TRAN 450 mg, Week 10): 1.50 mg/dL | Change from Baseline in Uric Acid, Mean (SD) (3M TRAN 450 mg, Week 10): −3.73 (2.306) mg/dL | Change from Baseline in Uric Acid, Median (3M TRAN 450 mg, Week 10): -4.10 mg/dL | Change from Baseline in Uric Acid, Min (3M TRAN 450 mg, Week 10): -8.60 mg/dL | Change from Baseline in Uric Acid, Max (3M TRAN 450 mg, Week 12): 0.50 mg/dL | Change from Baseline in Uric Acid, Mean (SD) (3M TRAN 450 mg, Week 12): −3.79 (2.065) mg/dL | Change from Baseline in Uric Acid, Median (3M TRAN 450 mg, Week 12): -4.30 mg/dL | Change from Baseline in Uric Acid, Min (3M TRAN 450 mg, Week 12): -8.12 mg/dL | serum uric acid levels in patients treated with Tranilast (analysis of PRESTO data, 300 and 450 mg twice daily): markedly decreased

Source: patent publication US20100160351A1, “PHARMACEUTICAL COMPOSITIONS AND METHODS FOR TREATING HYPERURICEMIA AND RELATED DISORDERS” (NUON THERAPEUTICS, INC., priority 2008, published 2010)
